Numbers after ± are expanded uncertainties.
Legend:
[1] = refractive index (Na D-line) (dimensionless); details: 101.33 kPa, Liquid, Standard Abbe refractometry
[2] = 101.33 kPa, Buoyancy - hydrostatic balance

Row | Structure (SMILES) | refractive index ([1]; 293.2 K) | mass density ([2]; 293.2 K, Liquid) [kg/m3] | mass density ([2]; 293.2 K, Crystal) [kg/m3] | refractive index ([1]; 314.5 K) | mass density ([2]; 314.5 K, Liquid) [kg/m3]
1 | CCCCCCCCO [octan-1-ol] | 1.4288 ± 0.0005 | 823.6 ± 0.3 | – | – | –
2 | Oc1ccc(O)cc1 [1,4-benzenediol] | – | – | 1332 ± 3 | – | –
3 | CCCOC(C)=O [propyl ethanoate] | 1.3842 ± 0.0005 | 889 ± 2 | – | – | –
4 | Oc1ccccc1 [phenol] | – | – | – | 1.54182 ± 0.00051 | 1058.1 ± 0.3
5 | CCCCC(C)=O [2-hexanone] | 1.40065 ± 0.00054 | 811 ± 2 | – | – | –

From the NIST ThermoML archive (doi:10.1021/acs.jced.5b00918)
